According to ChEMBL document CHEMBL5233246, “CT1-3, a novel magnolol-sulforaphane hybrid suppresses tumorigenesis through inducing mitochondria-mediated apoptosis and inhibiting epithelial mesenchymal transition” (Eur J Med Chem, 2020):
Calls of active or inactive are those of the source. The calls are words filed in the database; no cut-off is given here.

What was measured:
NCI-H460 [1] = assay: Antiproliferative activity against human NCI-H460 cells assessed as reduction in cell viability incubated for 24 hrs by CCK-8 assay; assay type: functional, cell-based; conditions: NCI-H460, 24 h
LoVo [2] = assay: Induction of apoptosis in human LoVo cells assessed as increase in JNK phosphorylation at 7.5 uM incubated for 24 hrs by western blot assay; assay type: functional, cell-based
NCI-H460 [3] = assay: Inhibition of cell invasion in human NCI-H460 cells at 7.5 uM incubated for 24 hrs by matrigel based transwell assay; assay type: functional
LoVo [4] = assay: Inhibition of cell migration in human LoVo cells assessed as upregulation of E-cadherin protein expression at 7.5 uM incubated for 24 hrs by western blot analysis; assay type: functional, cell-based
U-251 = assay: Antiproliferative activity against human U-251 cells assessed as reduction in cell viability incubated for 24 hrs by CCK-8 assay; assay type: functional, cell-based; conditions: U-251, 24 h
LoVo [5] = assay: Induction of apoptosis in human LoVo cells assessed as early apoptotic cells at 10 uM incubated for 24 hrs by annexin V-FITC/propidium iodide staining based flow cytometry analysis (reference value: 1.3%); assay type: functional
A549 [6] = assay: Antitumor activity against human A549 cells xenografted in BALB/c mouse assessed as reduction in tumor growth at 20 mg/kg,ip measured after 28 days; assay type: functional, organism-based; conditions: time 28.0 day
SGC-7901 = assay: Antiproliferative activity against human SGC-7901 cells assessed as reduction in cell viability incubated for 24 hrs by CCK-8 assay; assay type: functional, cell-based; conditions: SGC-7901, 24 h
LoVo [7] = assay: Induction of apoptosis in human LoVo cells assessed as increase in Bax protein expression level at 7.5 uM incubated for 24 hrs by western blot assay; assay type: functional, cell-based
A549 [8] = assay: Induction of apoptosis in human A549 cells assessed as late apoptotic cells at 10 uM incubated for 24 hrs by annexin V-FITC/propidium iodide staining based flow cytometry analysis (reference value: 0.8%); assay type: functional
A549 [9] = assay: Induction of apoptosis in human A549 cells assessed as early apoptotic cells at 10 uM incubated for 24 hrs by annexin V-FITC/propidium iodide staining based flow cytometry analysis (reference value: 3.6%); assay type: functional
MDA-MB-231 [10] = assay: Antiproliferative activity against human MDA-MB-231 cells assessed as reduction in cell viability incubated for 24 hrs by CCK-8 assay; assay type: functional, cell-based; conditions: MDA-MB-231, 24 h
A549 [11] = assay: Induction of apoptosis in human A549 cells assessed as necrotic cells at 10 uM incubated for 24 hrs by annexin V-FITC/propidium iodide staining based flow cytometry analysis (reference value: 0.4%); assay type: functional
LoVo [12] = assay: Inhibition of cell migration in human LoVo cells at 7.5 uM incubated for 24 hrs by crystal violet staining based transwell assay; assay type: functional
NCI-H460 [13] = assay: Induction of apoptosis in human NCI-H460 cells assessed as viable cells at 10 uM incubated for 24 hrs by annexin V-FITC/propidium iodide staining based flow cytometry analysis (reference value: 97.9%); assay type: functional; conditions: read-out: Activity
NCI-H1650 = assay: Antiproliferative activity against human NCI-H1650 cells assessed as reduction in cell viability incubated for 24 hrs by CCK-8 assay; assay type: functional, cell-based; conditions: NCI-H1650, 24 h
NCI-H460 [14] = assay: Cytotoxicity against human NCI-H460 cells assessed as reduction in cell viability at 10 uM incubated for 8 hr by CCK-8 assay; assay type: functional, cell-based
[15] = Antiproliferative activity against human […] cells assessed as reduction in cell viability incubated for 24 hrs by CCK-8 assay; assay type: functional, cell-based
A549 [16] = assay: Inhibition of colony formation in human A549 cells incubated for 48 hrs by Giemsa staining based microscopy; assay type: functional, cell-based
A549 [17] = assay: Induction of apoptosis in human A549 cells assessed as reduction of mitochondrial membrane potential at 10 uM incubated for 8 hrs by JC-1 staining based fluorescence microscopic assay; assay type: functional, cell-based
NCI-H1299 = assay: Antiproliferative activity against human NCI-H1299 cells assessed as reduction in cell viability incubated for 24 hrs by CCK-8 assay; assay type: functional, cell-based; conditions: NCI-H1299, 24 h
OVCAR-3 = assay: Antitumor activity against human OVCAR-3 cells xenografted in BALB/c mouse assessed as reduction in tumor growth at 20 mg/kg,ip measured after 28 days; assay type: functional, organism-based; conditions: time 28.0 day
AGS [18] = assay: Antiproliferative activity against human AGS cells assessed as reduction in cell viability incubated for 24 hrs by CCK-8 assay; assay type: functional, cell-based
LoVo [19] = assay: Antiproliferative activity against human LoVo cells assessed as reduction in cell viability incubated for 24 hrs by CCK-8 assay; assay type: functional, cell-based
[20] = Toxicity in BALB/c mouse xenografted with human MDA-MB-231 cells assessed as liver pathological change at 20 mg/kg,ip measured after 28 days; assay type: organism-based; conditions: in vivo, 672 h, time 28 day
LoVo [21] = assay: Induction of apoptosis in human LoVo cells assessed as reduction of mitochondrial membrane potential at 10 uM incubated for 8 hrs by JC-1 staining based fluorescence microscopic assay; assay type: functional, cell-based
LoVo [22] = assay: Induction of apoptosis in human LoVo cells assessed as decrease in XIAP protein expression level at 7.5 uM incubated for 24 hrs by western blot assay; assay type: functional, cell-based
SW480 = assay: Inhibition of colony formation in human SW480 cells incubated for 48 hrs by Giemsa staining based microscopy; assay type: functional, cell-based
NCI-H460 [23] = assay: Induction of apoptosis in human NCI-H460 cells assessed as increase in JNK phosphorylation level at 7.5 uM incubated for 24 hrs by western blot assay; assay type: functional, cell-based
NCI-H460 [24] = assay: Induction of apoptosis in human NCI-H460 cells assessed as reduction of mitochondrial membrane potential at 10 uM incubated for 8 hrs by JC-1 staining based fluorescence microscopic assay; assay type: functional, cell-based
MDA-MB-231 [25] = assay: Antitumor activity against human MDA-MB-231 cells xenografted in BALB/c mouse assessed as tumor necrosis at 20 mg/kg,ip measured after 28 days; assay type: functional, organism-based; conditions: time 28.0 day
AGS [26] = assay: Inhibition of colony formation in human AGS cells incubated for 48 hrs by Giemsa staining based microscopy; assay type: functional, cell-based
HONE1 cell line = assay: Antiproliferative activity against human HONE1 cell line assessed as reduction in cell viability incubated for 24 hrs by CCK-8 assay; assay type: functional, cell-based; conditions: HONE1, 24 h
[27] = Antiproliferative activity against human NCI-H1688 cells assessed as reduction in cell viability incubated for 24 hrs by CCK-8 assay; assay type: functional, cell-based; conditions: NCI-H1688, 24 h

SMILES: C=CCc1ccc(O)c(-c2cc(CC=C)ccc2OCC[S+]([O-])CCCCN=C=S)c1 (centres undefined)
- IC50 (NCI-H460 [1]): 6.15 µM
- Activity (LoVo [2]): Active
- inhibition (NCI-H460 [3]): Active
- inhibition (LoVo [4]): Active
- IC50 (U-251): 7.75 µM
- Activity (LoVo [5]): 16.7%
- Activity (A549 [6]): Active
- IC50 (SGC-7901): 11.5 µM
- Activity (LoVo [7]): Active
- Activity (A549 [8]): 25.7%
- Activity (A549 [9]): 13.9%
- IC50 (MDA-MB-231 [10]): 7.48 µM
- Activity (A549 [11]): 10.3%
- inhibition (LoVo [12]): Active
- viability at 10 µM (NCI-H460 [13]): 15.3%
- IC50 (NCI-H1650): 6.92 µM
- Activity (NCI-H460 [14]): Active
- IC50 [15]: 9.56 µM
- inhibition (A549 [16]): Active
- Activity (A549 [17]): Active
- IC50 (NCI-H1299): 9.17 µM
- Activity (OVCAR-3): Active
- IC50 (AGS [18]): 8.02 µM
- IC50 (LoVo [19]): 5.1 µM
- Activity [20]: Non-Toxic
- Activity (LoVo [21]): Active
- Activity (LoVo [22]): Active
- inhibition (SW480): Active
- Activity (NCI-H460 [23]): Active
- Activity (NCI-H460 [24]): Active
- Activity (MDA-MB-231 [25]): Active
- inhibition (AGS [26]): Active
- IC50 (HONE1 cell line): 14.1 µM
- IC50 [27]: 12.8 µM
